Experimental data: publication PMC9502272, “A Metabolomics Approach for Predicting OATP1B-Type Transporter-Mediated Drug–Drug Interaction Liabilities” (Pharmaceutics, 2022)
Structures can show the parent of a compound that is named as a salt. Where two headings read alike, the source gives them in different places.

Experiments:
[1] = design: method as in ref PMIDs of Table S2 (18321482, 35456528, 28612269, 10997930, 27796539, 23299792, 11129729, 22808947, 12844327); conditions: ref PMIDs of Table S2 (18321482, 35456528, 28612269, 10997930, 27796539, 23299792, 11129729, 22808947, 12844327); cited from earlier work
OATP1B = assay: Clinical study: OATP1B biomarkers in patients receiving cabazitaxel; assay type: in vivo, human; conditions: cabazitaxel 1 h i.v. infusion up to 25 mg/m^2
Description: Samples from patients with solid tumors were collected from 3 clinical studies conducted in accordance with the principles of the Declaration of Helsinki, and all study protocols were approved by Institutional Review Boards at either the National Cancer Institute (Bethesda, MD, USA) or the Erasmus Medical Center Cancer Institute (Rotterdam, The Netherlands). All patients provided written informed consent for their blood samples and medical information to be used for research purposes.
An Accucore aQ column (50 × 2.1 mm, dp = 2.6 μm; Thermo Fisher Scientific) was protected by a C18 AQUASIL guard cartridge (2.1 mm × 10 mm, dp = 3 μm; Thermo Fisher Scientific). The injection volume of sample was 5.0 μL. The temperature of the autosampler rack was 4 °C, and the temperature of the column was maintained at 20 °C. The mobile phase was composed of solvent A (2 mmol ammonium acetate in water) and solvent B (100% methanol), and the total run time was 4.6 min. The gradient conditions were as follows: 0–0.5 min, 45% B; 0.5–2.0 min, 45 to 90%, 2.0–4.0 min, 90% B; 4.0–4.6 min, 45% B, delivered at a flow rate of 0.4 mL/min. The MS assay setting with the positive voltage applied to the ESI capillary was set at 3791 V, and the capillary temperatures was 335 °C with a vaporizer temperature of 350 °C. […] The lower limit of quantitation (LLOQ) for both analytes was determined to be 0.5 ng/mL. […]

Oatp1b2 [2] = molecular target: T1, Oatp1b2 (Mus musculus, UniProt Q9JJL3); conditions: in vivo
T1 sequence (Q9JJL3 1-689): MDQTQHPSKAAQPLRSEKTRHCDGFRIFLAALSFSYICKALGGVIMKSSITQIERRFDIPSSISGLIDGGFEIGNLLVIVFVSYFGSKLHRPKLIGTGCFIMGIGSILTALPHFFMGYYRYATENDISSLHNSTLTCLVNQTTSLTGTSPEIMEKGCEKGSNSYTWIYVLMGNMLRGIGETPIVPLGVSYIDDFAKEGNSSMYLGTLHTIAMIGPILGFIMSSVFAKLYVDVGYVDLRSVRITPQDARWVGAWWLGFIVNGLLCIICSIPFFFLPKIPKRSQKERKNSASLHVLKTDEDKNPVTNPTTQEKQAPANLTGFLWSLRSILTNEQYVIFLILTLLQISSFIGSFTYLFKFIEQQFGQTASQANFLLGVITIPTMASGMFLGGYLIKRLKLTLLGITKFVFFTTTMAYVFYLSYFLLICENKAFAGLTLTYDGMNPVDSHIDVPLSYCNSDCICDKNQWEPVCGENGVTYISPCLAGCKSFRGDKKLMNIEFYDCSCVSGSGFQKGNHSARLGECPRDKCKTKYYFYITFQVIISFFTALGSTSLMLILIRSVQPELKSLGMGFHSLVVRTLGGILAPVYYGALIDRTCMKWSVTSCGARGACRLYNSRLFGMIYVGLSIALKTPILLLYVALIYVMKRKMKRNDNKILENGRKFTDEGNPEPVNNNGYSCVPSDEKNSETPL
Method: (§1) For all experiments, age- and sex-matched mice (8–12 weeks old) were used. […] Mice with a deficiency of Oatp1b2 (Oatp1b2(−/−) mice), the single murine orthologue of OATP1B1 and OATP1B3 in humans, on a DBA/1LacJ background were kindly provided by Drs. Richard B. Kim (Western University, London, Ontario, Canada) and Jeffrey L. Stock (Pfizer, Groton, CT, USA).
(§2) Plasma samples from untreated wild-type mice and Oatp1b2(−/−) mice were analyzed for structurally named and unknown molecules using a non-targeted semi-quantitative liquid chromatography-tandem mass spectrometry (LC-MS/MS) and gas chromatography-mass spectrometry platforms (Metabolon, Durham, NC, USA). Compounds were identified by comparison with library entries of purified standards or recurrent unknown entities.

Oatp1b2 [3] = molecular target: T1, Oatp1b2; assay: Untargeted metabolomics of plasma from untreated wild-type and Oatp1b2(−/−) mice; conditions: for Fold of Change KO/WT: plasma of untreated Oatp1b2-deficient (KO) vs wild-type (WT) mice, semi-quantitative, positive = higher in KO, n = 6 per group; for Mean value KO: plasma of untreated Oatp1b2-deficient mice; for Mean value KO / Mean value WT: raw area counts rescaled to median = 1; for Mean value WT: plasma of untreated wild-type mice
Method: as §1, §2

Oatp1a/1b = assay: Baseline plasma biomarker levels in Oatp1a/1b(−/−) cluster-knockout vs wild-type mice; assay type: in vivo, mouse
Method: Plasma concentrations of levels of CDCA-24G and glycochenodeoxycholate-3-sulfate (GCDCA-S) were determined using LC-MS/MS using a Vanquish UHPLC coupled with a Quantiva triple quadrupole mass spectrometer (Thermo Fisher Scientific, Waltham, MA, USA). An Accucore aQ column (50 × 2.1 mm, dp = 2.6 μm; Thermo Fisher Scientific) was protected by a C18 AQUASIL guard cartridge (2.1 mm × 10 mm, dp = 3 μm; Thermo Fisher Scientific). The injection volume of sample was 5.0 μL. The temperature of the autosampler rack was 4 °C, and the temperature of the column was maintained at 20 °C. The mobile phase was composed of solvent A (2 mmol ammonium acetate in water) and solvent B (100% methanol), and the total run time was 4.6 min. The gradient conditions were as follows: 0–0.5 min, 45% B; 0.5–2.0 min, 45 to 90%, 2.0–4.0 min, 90% B; 4.0–4.6 min, 45% B, delivered at a flow rate of 0.4 mL/min. The MS assay setting with the positive voltage applied to the ESI capillary was set at 3791 V, and the capillary temperatures was 335 °C with a vaporizer temperature of 350 °C. Argon was used as the collision gas at a pressure of 1.5 mTorr. Precursor molecular ions, and product ions were recorded for the confirmation and detection of GCDCA-S (528.4 > 448.3) and CDCA-24G (567.4 > 391.1), using [^2H5]-GCDCA-S (535.5 > 453.3) and [^2H5]-CDCA-24G (572.5 > 396.1) as respective internal standards. The lower limit of quantitation (LLOQ) for both analytes was determined to be 0.5 ng/mL. […]
Plasma concentrations of coproporphyrin I (CP-I) and III (CP-III) were determined similarly by LC-MS/MS. […] Precursor molecular ions and product ions were recorded for confirmation and detection of CP-I (655.4 > 596.4) and CP-III (655.4 > 596.3), using [^2H4]-CP-III (659.4 > 600.3) as the internal standard for both analytes. The LLOQ for both analytes were determined to be 1 ng/mL, and the within-run and between-run precisions as well as the accuracy were always within acceptable limits.

With `CO[C@H]1C(=O)[C@]2(C)[C@@H](OC)C[C@H]3OC[C@@]3(OC(C)=O)[C@H]2[C@H](OC(=O)c2ccccc2)[C@]2(O)C[C@H](OC(=O)[C@H](O)[C@@H](NC(=O)OC(C)(C)C)c3ccccc3)C(C)=C1C2(C)C` [Cabazitaxel, cabazitaxel] as the compound, how does the Cmax [1] read?
The Cmax was 193 nM.

And the “Effect on plasma levels of CDCA-24G” value (OATP1B)?
The value was “not associated with elevated plasma levels”.

And the “Effect on plasma levels of GCDCA-S” value (OATP1B)?
Its value is “not associated with elevated plasma levels”.

With `C[N+](C)(C)[C@@H](Cc1cnc[nH]1)C(=O)[O-]` [histidine betaine (hercynine)] as the compound, how does the “Fold of Change KO/WT” value (Oatp1b2 [2]) read?
The value was 1.31.

And the “Mean value KO” value (Oatp1b2 [2])?
Its value is 1.09.

What about the “Mean value WT” value (Oatp1b2 [2]) of the same compound?
The value was “.830”.

With equol sulfate as the compound, how does the “Fold of Change KO/WT” value (Oatp1b2 [3]) read?
The value was 2.58.

And the “Mean value KO” value (Oatp1b2 [3])?
Its value is 1.62.

And the “Mean value WT” value (Oatp1b2 [3])?
The value was “.626”.

With `CC(=O)N[C@@H](CC[S+](C)[O-])C(=O)O` (some centres unmarked) [N-acetylmethionine sulfoxide] as the compound, how does the “Fold of Change KO/WT” value (Oatp1b2 [3]) read?
Its value is 1.40.

And the “Mean value KO” value (Oatp1b2 [3])?
The value was 1.31.

And the “Mean value WT” value (Oatp1b2 [3])?
Its value is “.931”.

For taurocholenate sulfate, which “Mean value KO” value (Oatp1b2 [3]) is on record?
The value was 1.08.

What about the “Mean value WT” value (Oatp1b2 [3]) of the same compound?
The value was “.838”.

With sphingomyelin (d18:2/14:0, d18:1/14:1) as the compound, how does the “Fold of Change KO/WT” value (Oatp1b2 [3]) read?
Its value is 1.36.

What about the “Mean value KO” value (Oatp1b2 [3]) of the same compound?
The value was 1.14.

What about the “Mean value WT” value (Oatp1b2 [3]) of the same compound?
Its value is “.839”.

Which results are given for `O=S(=O)(O)Oc1ccc(O)cc1` [hydroquinone sulfate]?
Fold of Change KO/WT (Oatp1b2 [3]): 1.55; Mean value KO (Oatp1b2 [3]): 1.32; Mean value WT (Oatp1b2 [3]): .849

With `CCCCCCCCCCCCCCC(=O)O[C@H](CC(=O)[O-])C[N+](C)(C)C` [pentadecanoylcarnitine (C15)] as the compound, how does the “Fold of Change KO/WT” value (Oatp1b2 [3]) read?
Its value is 1.77.

And the “Mean value KO” value (Oatp1b2 [3])?
Its value is 1.28.

What about the “Mean value WT” value (Oatp1b2 [3]) of the same compound?
Its value is “.723”.

Which “Fold of Change KO/WT” value (Oatp1b2 [3]) does the source give for `CC/C=C\C/C=C\C/C=C\CCCCCCCC(=O)OC[C@@H](O)COP(=O)([O-])OCC[N+](C)(C)C` [1-linolenoyl-GPC (18:3)] here?
The value was 2.13.

What about the “Mean value KO” value (Oatp1b2 [3]) of the same compound?
The value was 1.41.

And the “Mean value WT” value (Oatp1b2 [3])?
Its value is “.661”.

What does the source list for `C[C@H](CCC(=O)O)[C@H]1CC[C@H]2[C@@H]3C[C@H](O)[C@@H]4C[C@@H](O)CC[C@]4(C)[C@H]3CC[C@]12C` [isohyodeoxycholate]?
Fold of Change KO/WT (Oatp1b2 [3]): 2.46; Mean value KO (Oatp1b2 [3]): 0.940; Mean value WT (Oatp1b2 [3]): .382

Which results are given for chenodeoxycholic acid sulfate (1)?
Fold of Change KO/WT (Oatp1b2 [3]): 6.41; Mean value KO (Oatp1b2 [3]): 1.02; Mean value WT (Oatp1b2 [3]): .160

With `CCCCC/C=C\C/C=C\C/C=C\C/C=C\CCCC(=O)O[C@H](CO/C=C\CCCCCCCCCCCCCC)COP(=O)(O)OCCN` [1-(1-enyl-palmitoyl)-2-arachidonoyl-GPE (P-16:0/20:4)] as the compound, how does the “Fold of Change KO/WT” value (Oatp1b2 [3]) read?
The value was 1.34.

What about the “Mean value KO” value (Oatp1b2 [3]) of the same compound?
Its value is 1.13.

What about the “Mean value WT” value (Oatp1b2 [3]) of the same compound?
Its value is “.839”.

With `CCCCCCCCCCCCCCCCCCCCCCCC(=O)OC[C@@H](O)COP(=O)([O-])OCC[N+](C)(C)C` [1-lignoceroyl-GPC (24:0)] as the compound, how does the “Fold of Change KO/WT” value (Oatp1b2 [3]) read?
The value was 1.36.

And the “Mean value KO” value (Oatp1b2 [3])?
Its value is 1.16.

And the “Mean value WT” value (Oatp1b2 [3])?
Its value is “.847”.

Which results are given for `C[C@H](CCC(=O)O)[C@H]1CC[C@H]2[C@@H]3[C@@H](O)[C@@H](O)[C@@H]4C[C@H](O)CC[C@]4(C)[C@H]3CC[C@]12C` [beta-muricholate]?
Fold of Change KO/WT (Oatp1b2 [3]): 15.2; Mean value KO (Oatp1b2 [3]): 2.84; Mean value WT (Oatp1b2 [3]): .187

With `CCCCC(=O)NCC(=O)O` [valerylglycine] as the compound, how does the “Fold of Change KO/WT” value (Oatp1b2 [3]) read?
The value was 1.53.

And the “Mean value KO” value (Oatp1b2 [3])?
The value was 1.28.

What about the “Mean value WT” value (Oatp1b2 [3]) of the same compound?
Its value is “.838”.

What does the source list for `CCCCC/C=C\C/C=C\C/C=C\C/C=C\CCCC(=O)O[C@H](CC(=O)[O-])C[N+](C)(C)C` [arachidonoylcarnitine (C20:4)]?
Fold of Change KO/WT (Oatp1b2 [3]): 1.92; Mean value KO (Oatp1b2 [3]): 1.53; Mean value WT (Oatp1b2 [3]): .796

What does the source list for `C[C@H](CCC(=O)O)[C@H]1CC[C@H]2[C@@H]3CC(=O)[C@@H]4C[C@H](O)CC[C@]4(C)[C@H]3CC[C@]12C` [6-oxolithocholate]?
Fold of Change KO/WT (Oatp1b2 [3]): 1.43; Mean value KO (Oatp1b2 [3]): 0.970; Mean value WT (Oatp1b2 [3]): .678

For nonadecenamide (19:1), which “Fold of Change KO/WT” value (Oatp1b2 [3]) is on record?
The value was 1.39.

And the “Mean value KO” value (Oatp1b2 [3])?
Its value is 1.27.

And the “Mean value WT” value (Oatp1b2 [3])?
Its value is “.917”.

Which “Observed changes in plasma levels in Oatp1a/1b(−/−), OATP1B1(tg) or OATP1B3(tg) mice vs wild type, compared with CDCA-24G” value (Oatp1a/1b) does the source give for coproporphyrin I [CP-I] here?
Its value is “much more modest”.

With `O=S(=O)(O)Oc1c[nH]c2ccccc12` [3-indoxyl sulfate] as the compound, how does the “Fold of Change KO/WT” value (Oatp1b2 [3]) read?
The value was 1.48.

What about the “Mean value KO” value (Oatp1b2 [3]) of the same compound?
Its value is 1.19.

What about the “Mean value WT” value (Oatp1b2 [3]) of the same compound?
Its value is “.804”.

With coproporphyrin III [CP-III] as the compound, how does the “Observed changes in plasma levels in Oatp1a/1b(−/−), OATP1B1(tg) or OATP1B3(tg) mice vs wild type, compared with CDCA-24G” value (Oatp1a/1b) read?
The value was “much more modest”.

For `CCCCC/C=C\C/C=C\C/C=C\C/C=C\CCCC(=O)O[C@H](CO/C=C\CCCCCCCCCCCCCC)COP(=O)([O-])OCC[N+](C)(C)C` [1-(1-enyl-palmitoyl)-2-arachidonoyl-GPC (P-16:0/20:4)], which “Fold of Change KO/WT” value (Oatp1b2 [3]) is on record?
Its value is 1.46.

What about the “Mean value KO” value (Oatp1b2 [3]) of the same compound?
The value was 1.30.

And the “Mean value WT” value (Oatp1b2 [3])?
The value was “.891”.

For eicosenamide (20:1), which “Fold of Change KO/WT” value (Oatp1b2 [3]) is on record?
Its value is 1.43.

What about the “Mean value KO” value (Oatp1b2 [3]) of the same compound?
The value was 1.27.

And the “Mean value WT” value (Oatp1b2 [3])?
The value was “.885”.

For `CCCCCCCCCCCCCCCC(N)=O` [palmitamide (16:0)], which “Fold of Change KO/WT” value (Oatp1b2 [3]) is on record?
The value was 1.40.

What about the “Mean value KO” value (Oatp1b2 [3]) of the same compound?
Its value is 1.18.

And the “Mean value WT” value (Oatp1b2 [3])?
The value was “.840”.

For (N(1) + N(8))-acetylspermidine, which “Mean value WT” value (Oatp1b2 [3]) is on record?
Its value is “.931”.

Which “Fold of Change KO/WT” value (Oatp1b2 [3]) does the source give for `CCCCCCCCCCCCCCCC(=O)OC[C@H](COP(=O)([O-])OCC[N+](C)(C)C)OC(=O)CCCCCCCCCCCCCCC` [1,2-dipalmitoyl-GPC (16:0/16:0)] here?
Its value is 1.31.

And the “Mean value KO” value (Oatp1b2 [3])?
Its value is 1.18.

What about the “Mean value WT” value (Oatp1b2 [3]) of the same compound?
The value was “.901”.
